According to PMC9181126, “Design, Synthesis, Molecular Docking Analysis and Biological Evaluations of 4-[(Quinolin-4-yl)amino]benzamide Derivatives as Novel Anti-Influenza Virus Agents” (International Journal of Molecular Sciences, 2022):

What was measured:
[1] = test system: influenza virus A/WSN/33 (H1N1); test: microbe, parasite or virus in culture; assay type: cell-based; conditions: MDCK, 72 h; for inhibition at 12.5 µM / inhibition at 25 µM / inhibition at 50 µM / inhibition at 100 µM: H1N1|WSN, read-out: Antiviral activity in CPE assay; for EC50: read-out: Cytopathic Effect Assay (A/WSN/33, H1N1) EC50
in vitro [2] = assay type: cell-based, canine; conditions: dog
Protocol: (§1) The 3-(4,5-dimethylthiazol-2-yl)-2,5-diphenyltetrazolium bromide (MTT) method was performed to assess the cytotoxicity of target compounds in MDCK cells and HEK293T cells. Firstly, MDCK cells or HEK293T cells were seeded into the 96-well plate. Then, the media containing test compounds replaced the growth media after 48 h. Incubate MDCK cells or HEK293T cells with test compounds for 72 h at 37 °C in a humidified 5% CO2 incubator. Later, MTT solution (5 mg/mL in PBS) was added into each well and plates were incubated for 4 h at 37 °C. Then, add a solubilization solution to lyse cells. Finally, absorbance was read at 620 nm using an ELISA plate reader (Tecan Sunrise) after 3 h of further incubation at 37 °C. We set the values obtained from the wells treated with only DMSO as 100% of viable cells.

MDCK cells = test: in vitro; assay type: cell-based, canine; conditions: dog, 72 h
Protocol: as §1

in vitro [3] = assay type: cell-based; conditions: human
Protocol: as §1

HEK293T cells = test: in vitro; assay type: cell-based; conditions: human, 72 h
Protocol: as §1

[4] = test system: influenza virus A/WSN/33 (H1N1); test: Plaque inhibition assay in MDCK cells; assay type: cell-based; conditions: MDCK, read-out: Plaque Inhibition Assay (A/WSN/33, H1N1) Inhibition Rate; for inhibition at 100 µM: concentration 100 µM; for inhibition at 25 µM: concentration 25 µM

O=C(NCc1ccccc1)c1ccc(Nc2ccnc3cc(C(F)(F)F)ccc23)cc1 [Compound G11, N-Benzyl-4-{[7-(trifluoromethyl)quinolin-4-yl]amino}benzamide]
inhibition at 12.5 µM [1]: 47.7 ± 9.63% | inhibition at 25 µM [1]: 52.4 ± 3.44% | inhibition at 50 µM [1]: 44.1 ± 1.38% | inhibition at 100 µM [1]: 47.3 ± 0.92% | EC50 [1]: 7.17 ± 1.53 µM | CC50 at 72 h (in vitro [2]): > 100 µM | MDCK cells survival rate (MDCK cells; 12.5 µmol·L−1): 148.07±0.17% | MDCK cells survival rate (MDCK cells; 25 µmol·L−1): 123.28±5.69% | MDCK cells survival rate (MDCK cells; 50 µmol·L−1): 127.54±0.33% | MDCK cells survival rate (MDCK cells; 100 µmol·L−1): 137.86±9.32% | CC50 at 72 h (in vitro [3]): > 100 µM | HEK293T cells survival rate (HEK293T cells; 3.125 µmol·L−1): 129.49±22.76% | HEK293T cells survival rate (HEK293T cells; 6.25 µmol·L−1): 101.78±7.08% | HEK293T cells survival rate (HEK293T cells; 12.5 µmol·L−1): 105.25±12.82% | HEK293T cells survival rate (HEK293T cells; 25 µmol·L−1): 108.76±5.63% | HEK293T cells survival rate (HEK293T cells; 50 µmol·L−1): 103.77±9.35% | HEK293T cells survival rate (HEK293T cells; 100 µmol·L−1): 86.44±8.60% | inhibition at 100 µM [4]: 50% | melting point: 263.4 to 265.8 °C

Cc1ccccc1N1CCN(C(=O)c2ccc(Nc3ccnc4cc(C(F)(F)F)ccc34)cc2)CC1 [Compound G13, [4-(O-tolyl)piperazin-1-yl]{4-{[7-(trifluoromethyl)quinolin-4-yl]amino}phenyl}methanone]
inhibition at 12.5 µM [1]: 27 ± 2.2% | inhibition at 25 µM [1]: 33.1 ± 4.47% | inhibition at 50 µM [1]: 36.9 ± 4.41% | inhibition at 100 µM [1]: 34.3 ± 7.15% | EC50 [1]: > 100 µM | CC50 at 72 h (in vitro [2]): > 100 µM | MDCK cells survival rate (MDCK cells; 12.5 µmol·L−1): 89.39±3.87% | MDCK cells survival rate (MDCK cells; 25 µmol·L−1): 87.73±16.36% | MDCK cells survival rate (MDCK cells; 50 µmol·L−1): 92.20±10.16% | MDCK cells survival rate (MDCK cells; 100 µmol·L−1): 65.91±7.51% | CC50 at 72 h (in vitro [3]): > 100 µM | HEK293T cells survival rate (HEK293T cells; 3.125 µmol·L−1): 99.14±6.42% | HEK293T cells survival rate (HEK293T cells; 6.25 µmol·L−1): 96.29±4.65% | HEK293T cells survival rate (HEK293T cells; 12.5 µmol·L−1): 89.92±2.14% | HEK293T cells survival rate (HEK293T cells; 25 µmol·L−1): 88.23±4.29% | HEK293T cells survival rate (HEK293T cells; 50 µmol·L−1): 80.60±2.01% | HEK293T cells survival rate (HEK293T cells; 100 µmol·L−1): 81.89±2.67% | inhibition at 100 µM [4]: < 10% | melting point: 194.7 to 195.6 °C

Cc1ccc(N2CCN(C(=O)c3ccc(Nc4ccnc5cc(C(F)(F)F)ccc45)cc3)CC2)cc1 [Compound G14, [4-(P-tolyl)piperazin-1-yl]{4-{[7-(trifluoromethyl)quinolin-4-yl]amino}phenyl}methanone]
inhibition at 12.5 µM [1]: 16.43 ± 0.12% | inhibition at 25 µM [1]: 20.7 ± 3.82% | inhibition at 50 µM [1]: 23.4 ± 2.31% | inhibition at 100 µM [1]: 27.9 ± 2.05% | EC50 [1]: > 100 µM | CC50 at 72 h (in vitro [2]): > 100 µM | MDCK cells survival rate (MDCK cells; 12.5 µmol·L−1): 82.40±6.45% | MDCK cells survival rate (MDCK cells; 25 µmol·L−1): 91.16±1.34% | MDCK cells survival rate (MDCK cells; 50 µmol·L−1): 72.26±17.99% | MDCK cells survival rate (MDCK cells; 100 µmol·L−1): 56.76±2.08% | CC50 at 72 h (in vitro [3]): > 100 µM | HEK293T cells survival rate (HEK293T cells; 3.125 µmol·L−1): 105.78±7.34% | HEK293T cells survival rate (HEK293T cells; 6.25 µmol·L−1): 95.00±7.82% | HEK293T cells survival rate (HEK293T cells; 12.5 µmol·L−1): 89.38±1.59% | HEK293T cells survival rate (HEK293T cells; 25 µmol·L−1): 80.67±2.20% | HEK293T cells survival rate (HEK293T cells; 50 µmol·L−1): 76.77±5.03% | HEK293T cells survival rate (HEK293T cells; 100 µmol·L−1): 77.49±2.55% | inhibition at 25 µM [4]: < 10% | melting point: 192 to 193.8 °C

O=C(c1ccc(Nc2ccnc3cc(C(F)(F)F)ccc23)cc1)N1CCN(c2ccc(OC(F)(F)F)cc2)CC1 [Compound G15, {4-[4-(Trifluoromethoxy)phenyl]piperazin-1-yl}{4-{[7-(trifluoromethyl)quinolin-4-yl]amino}phenyl}methanone]
inhibition at 12.5 µM [1]: 36.9 ± 0.82% | inhibition at 25 µM [1]: 39.8 ± 4.98% | inhibition at 50 µM [1]: 35.3 ± 1.81% | inhibition at 100 µM [1]: 45.6 ± 5.12% | EC50 [1]: > 100 µM | CC50 at 72 h (in vitro [2]): > 100 µM | MDCK cells survival rate (MDCK cells; 12.5 µmol·L−1): 92.13±3.70% | MDCK cells survival rate (MDCK cells; 25 µmol·L−1): 82.80±5.22% | MDCK cells survival rate (MDCK cells; 50 µmol·L−1): 93.36±4.01% | MDCK cells survival rate (MDCK cells; 100 µmol·L−1): 76.18±1.27% | CC50 at 72 h (in vitro [3]): > 100 µM | HEK293T cells survival rate (HEK293T cells; 3.125 µmol·L−1): 105.64±1.62% | HEK293T cells survival rate (HEK293T cells; 6.25 µmol·L−1): 104.46±0.45% | HEK293T cells survival rate (HEK293T cells; 12.5 µmol·L−1): 93.38±3.30% | HEK293T cells survival rate (HEK293T cells; 25 µmol·L−1): 103.00±3.15% | HEK293T cells survival rate (HEK293T cells; 50 µmol·L−1): 89.01±2.08% | HEK293T cells survival rate (HEK293T cells; 100 µmol·L−1): 81.59±1.91% | inhibition at 50 µM ([4]; concentration 50 µM): 61% | melting point: 195.9 to 196.4 °C

CCOc1ccc(N2CCN(C(=O)c3ccc(Nc4ccnc5cc(C(F)(F)F)ccc45)cc3)CC2)cc1 [Compound G18, [4-(4-Ethoxyphenyl)piperazin-1-yl]{4-{[7-(trifluoromethyl)quinolin-4-yl]amino}phenyl}methanone]
inhibition at 12.5 µM [1]: 42.8 ± 0.57% | inhibition at 25 µM [1]: 39.5 ± 1.72% | inhibition at 50 µM [1]: 38.7 ± 4.29% | inhibition at 100 µM [1]: 35.5 ± 9.67% | EC50 [1]: > 100 µM | CC50 at 72 h (in vitro [2]): > 100 µM | MDCK cells survival rate (MDCK cells; 12.5 µmol·L−1): 112.99±2.36% | MDCK cells survival rate (MDCK cells; 25 µmol·L−1): 111.55±2.20% | MDCK cells survival rate (MDCK cells; 50 µmol·L−1): 138.28±6.89% | MDCK cells survival rate (MDCK cells; 100 µmol·L−1): 104.99±4.01% | CC50 at 72 h (in vitro [3]): > 100 µM | HEK293T cells survival rate (HEK293T cells; 3.125 µmol·L−1): 98.42±9.98% | HEK293T cells survival rate (HEK293T cells; 6.25 µmol·L−1): 87.82±9.55% | HEK293T cells survival rate (HEK293T cells; 12.5 µmol·L−1): 70.43±2.98% | HEK293T cells survival rate (HEK293T cells; 25 µmol·L−1): 65.43±6.72% | HEK293T cells survival rate (HEK293T cells; 50 µmol·L−1): 72.68±1.96% | HEK293T cells survival rate (HEK293T cells; 100 µmol·L−1): 86.90±1.67% | inhibition at 25 µM [4]: 16.3% | melting point: 210 to 212.3 °C

COc1ccccc1OCCNC(=O)c1ccc(Nc2ccnc3cc(C)ccc23)cc1 [Compound G21, N-[2-(2-Methoxyphenoxy)ethyl]-4-[(7-methylquinolin-4-yl)amino]benzamide]
inhibition at 12.5 µM [1]: 43 ± 7.31% | inhibition at 25 µM [1]: 39.8 ± 7.16% | inhibition at 50 µM [1]: 39.8 ± 6.58% | inhibition at 100 µM [1]: 50.1 ± 5.45% | EC50 [1]: > 100 µM | CC50 at 72 h (in vitro [2]): > 100 µM | MDCK cells survival rate (MDCK cells; 12.5 µmol·L−1): 83.41±3.67% | MDCK cells survival rate (MDCK cells; 25 µmol·L−1): 80.18±7.27% | MDCK cells survival rate (MDCK cells; 50 µmol·L−1): 93.28±9.93% | MDCK cells survival rate (MDCK cells; 100 µmol·L−1): 88.84±3.59% | CC50 at 72 h (in vitro [3]): > 100 µM | HEK293T cells survival rate (HEK293T cells; 3.125 µmol·L−1): 117.39±1.03% | HEK293T cells survival rate (HEK293T cells; 6.25 µmol·L−1): 103.95±2.65% | HEK293T cells survival rate (HEK293T cells; 12.5 µmol·L−1): 105.56±6.72% | HEK293T cells survival rate (HEK293T cells; 25 µmol·L−1): 102.64±2.91% | HEK293T cells survival rate (HEK293T cells; 50 µmol·L−1): 110.67±8.55% | HEK293T cells survival rate (HEK293T cells; 100 µmol·L−1): 50.09±0.70% | inhibition at 100 µM [4]: 11.5% | melting point: 209.6 to 210.6 °C
